This passage reports Ki results from US20110207729A1, “BICYCLIC ACYLGUANIDINE DERIVATIVE” (ASTELLAS PHARMA INC., priority 2007, published 2011).

pKi: −log10 of the molar value.

T1 sequence (P47898 whole entry): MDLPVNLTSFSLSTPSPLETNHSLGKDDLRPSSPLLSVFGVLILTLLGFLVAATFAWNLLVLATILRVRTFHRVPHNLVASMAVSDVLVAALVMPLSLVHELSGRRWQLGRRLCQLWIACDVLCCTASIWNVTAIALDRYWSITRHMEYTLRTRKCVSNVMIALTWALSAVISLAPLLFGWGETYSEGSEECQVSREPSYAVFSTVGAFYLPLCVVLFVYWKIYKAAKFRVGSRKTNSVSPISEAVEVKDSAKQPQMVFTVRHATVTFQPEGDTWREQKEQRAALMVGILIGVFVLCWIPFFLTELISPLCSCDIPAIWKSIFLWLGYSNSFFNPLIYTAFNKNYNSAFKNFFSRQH

This assay concerns the target T1, human 5-HT5A receptor (Homo sapiens, UniProt P47898).
T1 construct: expressed in transfected cells; membrane preparation
Put plainly: Test on a human 5-HT5A receptor binding inhibition ([3H]5-CT). Conditions: membrane from HEK293 cells expressing human 5-HT5A receptor; Ki calculated from IC50 and Kd 4.95 nM. How it is done:
Acquisition of HEK293 cells for forced expressions of a human 5-HT5A receptor
The ORF (open reading frame; protein coding region) of a human 5-HT5A receptor (Genbank AF498985) was cloned from a human hippocampus cDNA library, and then inserted into a pCR2.1 vector (Invitrogen), and Escherichia coli containing the plasmid was cultured in a large amount. Next, the full-length cDNA sequence of the human 5-HT5A receptor was analyzed, and recombined into a pcDNA3.1 vector (Invitrogen) as an expression vector and cultured in a large amount. HEK293 established cells (ATCC) derived from the human fetal kidney were seeded, the expression plasmid (1 μg) obtained above were added thereto with LIPOFECTAMINE 2000 (Invitrogen; 2 μl), the gene was transfected into HEK293 cells, and the expression cells were screened with a drug-resistant marker, Geneticin (G418 sulfate 500 μg/ml; Kanto Chemical Co., Inc.). Thus prepared recombinant cells which express the gene were cultured in a medium containing D-MEM (Dulbecco's modified eagle medium, Sigma), 10% FCS (Fetal calf serum: fetal bovine serum), 1% Pc./Sm (Penicillin/Streptomycin, Invitrogen), and 500 μg/ml G418 for 3 days. These experimental operations follow an manual for gene operation experiment and an instruction appended in a reagent, and the like, such as a known method (Sambrook, J. et al, Molecular Cloning—A Laboratory Manual”, Cold Spring Harabor laboratory, NY, 1989).
(1) Preparation of a Membrane from HEK293 Cells for Forced Expressions of a Human 5-HT5A Receptor
HEK293 cells for forced expressions of a human 5-HT5A receptor were cultured in a F500 plate, and scraped with a scraper. After centrifugation, a precipitate was collected, and an incubation buffer (50 mM Tris (HCl) (pH 7.4), 10 mM MgSO4, and 0.5 mM EDTA (ethylenediamine tetraacetic acid)) were added thereto. After homogenization, it was further centrifuged, and the precipitate was added with the incubation buffer, followed by thoroughly suspending. This operation was repeated, and a protein concentration was measured, thereby completing the preparation of a membrane.
(2) Test on a Human 5-HT5A Receptor Binding Inhibition
A solution of a compound to be tested and 100 μM 5-CT (5-carboxamidetriptamine) in DMSO was added to a 96-well plate at 2 μl/well, and suspended in an incubation buffer, and a membrane from HEK293 cells for forced expressions of a human 5-HT5A receptor prepared at 200 μg/ml was added at 100 μl/well. After incubation at room temperature for 15 minutes, a [^3H]5-CT solution (2 nM [^3H]5-CT, incubation buffer) was added thereto at 100 μl/well.
Separately, 100 μl of the solution was distributed into a liquid scintillation vial, and 2 ml of Aquasol II (registered trademark) was added thereto, followed by stirring. Then, a radioactivity was measured by a liquid scintillation counter. It was incubated at 37° C. for 60 minutes. The reaction mixture was sucked into 96-well GF/C filter plate that had been pre-treated with 0.2% polyethyleneimine, and washed six times with an ice-cooled, 50 mM Tris (pH 7.5) buffer. The GF/C filter plate was dried.
Microscint TMPS (registered trademark) was added thereto at 40 μl/well. A radioactivity remaining on the GF/C filter plate was measured by a top counter.
The [^3H]5-CT binding inhibiting activity by the compound to be tested in each experiment was determined as an IC50 value with a radioactivity upon addition of DMSO alone being 0% inhibition, and a radioactivity upon addition of 1 μM 5-CT being 100% inhibition. Separately, a Ki value was calculated from the Kd value of the [^3H]5-CT determined from Scatchard analysis, by the following equation.
Ki=IC50(1+Concentration of ligands added/Kd(4.95 nM))
As to `COc1cccc(C#N)c1C1=CCCc2ccc(C(=O)N=C(N)N)cc21` [Example 2-66], the pKi – broadly, the Ki on a negative log10 scale, so that one unit is a factor of ten – was 6.52 to 7.52.

As for `Cn1cc(C2=CCOc3ccc(C(=O)N=C(N)N)cc32)cn1` [Example 1-66], the negative logarithm of the Ki (pKi) was 6.52 to 7.52. To `NC(N)=NC(=O)c1ccc2c(c1)C(c1c(F)cc(F)cc1F)=CCCO2` [Example 3-12] belongs 8.52 to 9.52; to `COc1ccc(C2=CCCc3ccc(C(=O)N=C(N)N)cc32)c(C(F)(F)F)c1` [Example 2-165], 7.52 to 8.52; to `CC1C=C(c2ccc(C#N)cc2)c2cc(C(=O)N=C(N)N)ccc2O1` (stereo not shown) [Example 1-72], 7.52 to 8.52. To `NC(N)=NC(=O)c1ccc2c(c1)C(c1cc(F)cc(F)c1)=CCO2` [Example 1-46] belongs 7.52 to 8.52; to `CC1(C)C=C(c2ccccc2)c2cc(C(=O)N=C(N)N)ccc2O1` [Example 1-04], 6.52 to 7.52; to `NC(N)=NC(=O)c1cc(F)c2c(c1)C(c1c(F)cc(F)cc1F)=CCO2` [Example 1-85], 7.52 to 8.52. For the molecule `NC(N)=NC(=O)c1ccc2c(c1)C(c1ccc(O)cc1)=CCC2` [Example 2-52], the pKi was 8.52 to 9.52. The figure for `NC(N)=NC(=O)c1ccc2c(c1)C(c1cncs1)=CCC2` [Example 2-157] is 7.52 to 8.52; for `CS(=O)(=O)c1ccc(C2=CCCc3ccc(C(=O)N=C(N)N)cc32)cc1` [Example 2-97] it is 6.52 to 7.52; for `NC(N)=NC(=O)c1ccc2scc(-c3ccc(F)cc3)c2c1` [Example 3-25] it is 8.52 to 9.52. To `Cn1cc(C2=CCCc3ccc(C(=O)N=C(N)N)cc32)ccc1=O` [Example 2-191] belongs 6.52 to 7.52; to `NC(N)=NC(=O)c1ccc2c(c1)C(c1ccc(C(F)(F)F)cc1C(F)(F)F)=CCC2` [Example 2-117], 6.52 to 7.52; to `CC1C=C(c2ccc(F)c(F)c2)c2cc(C(=O)N=C(N)N)ccc2O1` (stereo not shown) [Example 1-146], 6.52 to 7.52. To `Cc1ccc(Cl)c(C2=CCOc3ccc(C(=O)N=C(N)N)cc32)c1F` [Example 1-82] belongs 8.52 to 9.52; to `Cn1cc(C2=CCCc3ccc(C(=O)N=C(N)N)cc32)cn1` [Example 2-77], 6.52 to 7.52. As for `CC1C=C(c2cccs2)c2cc(C(=O)N=C(N)N)ccc2O1` (stereo not shown) [Example 1-166], the pKi is 7.52 to 8.52.

As to `NC(N)=NC(=O)c1ccc2c(c1)C(c1ccccc1CO)=CCC2` [Example 2-35], the negative-log Ki (pKi) was 6.52 to 7.52.

On to `Cc1cc(C)c(C2=CCCc3ccc(C(=O)N=C(N)N)cc32)c(C)c1` [Example 2-69], for which the negative-log Ki (pKi) was 7.52 to 8.52. To `NC(N)=NC(=O)c1ccc2c(c1)C(c1cccc3c1OCCO3)=CCC2` [Example 2-189] belongs 6.52 to 7.52; to `CC1C=C(c2cccnc2Cl)c2cc(C(=O)N=C(N)N)ccc2O1` (stereo not shown) [Example 1-127], 6.52 to 7.52; to `COc1ccc(C#N)cc1C1=CCCc2ccc(C(=O)N=C(N)N)cc21` [Example 2-61], 7.52 to 8.52. For the molecule `NC(N)=NC(=O)c1ccc2c(c1)C(c1ccc(F)c(F)c1F)=CCC2` [Example 2-95], the negative logarithm of the Ki (pKi) was 8.52 to 9.52. As to `COc1ccc(C2=CCCc3ccc(C(=O)N=C(N)N)cc32)cc1C#N` [Example 2-78], the pKi was 7.52 to 8.52. The figure for `CCCC1=C(c2ccccc2)c2cc(C(=O)N=C(N)N)ccc2CC1` [Example 2-116] is 6.52 to 7.52; for `Cc1ccc(C2=CCOc3ccc(C(=O)N=C(N)N)cc32)c(Cl)c1` [Example 1-91] it is 8.52 to 9.52; for `NC(N)=NC(=O)c1ccc2c(c1)C(c1ccccc1F)=CCC2` [Example 2-09] it is 8.52 to 9.52. The figure for `NC(N)=NC(=O)c1ccc2c(c1)C(c1ccnc(Cl)c1)=CCC2` [Example 2-174] is 7.52 to 8.52; for `CC1=C(c2ccc(F)cc2F)c2cc(C(=O)N=C(N)N)ccc2CC1` [Example 2-177] it is 8.52 to 9.52. The figure for `N#Cc1ccccc1C1=CCOc2ccc(C(=O)N=C(N)N)cc21` [Example 1-21] is 7.52 to 8.52; for `COc1ccccc1C1=CCSc2ccc(C(=O)N=C(N)N)cc21` [Example 3-18] it is 6.52 to 7.52.

Consider `CC1C=C(c2cccnc2)c2cc(C(=O)N=C(N)N)ccc2O1` (stereo not shown) [Example 1-128], for which the pKi was 6.52 to 7.52.

Turning to `NC(N)=NC(=O)c1ccc2c(c1)C(c1cnccn1)=CCC2` [Example 2-86], the pKi was 6.52 to 7.52. The figure for `N#Cc1cc(C2=CCCc3ccc(C(=O)N=C(N)N)cc32)ccc1F` [Example 2-62] is 6.52 to 7.52. The figure for `CC1=C(c2c(F)cc(F)cc2F)c2cc(C(=O)N=C(N)N)ccc2OC1` [Example 1-67] is 8.52 to 9.52; for `NC(N)=NC(=O)c1ccc2c(c1)C(c1cccc(F)c1)=CCC2` [Example 2-08] it is 7.52 to 8.52. `CN(C)Cc1cccc(C2=CCCc3ccc(C(=O)N=C(N)N)cc32)c1` [Example 2-38]: the negative logarithm of the Ki (pKi) was 7.52 to 8.52. The figure for `NC(N)=NC(=O)c1ccc2scc(-c3ccccc3)c2c1` [Example 3-07] is 7.52 to 8.52. To `CC1(C)C=C(c2cc(F)c(F)cc2F)c2cc(C(=O)N=C(N)N)ccc2O1` [Example 1-120] belongs 6.52 to 7.52; to `NC(N)=NC(=O)c1ccc2c(c1)C(c1ccc([N+](=O)[O-])cc1)=CCC2` [Example 2-48], 8.52 to 9.52. Turning to `COc1ccc(C2=C(C)CCc3ccc(C(=O)N=C(N)N)cc32)c(C)c1` [Example 2-170], the negative logarithm of the Ki (pKi) was 8.52 to 9.52. The figure for `COc1cccc(C2=CCCc3ccc(C(=O)N=C(N)N)cc32)c1C#N` [Example 2-181] is 6.52 to 7.52; for `NC(N)=NC(=O)c1ccc2c(c1)C(c1ccc3nccn3c1)=CCC2` [Example 2-171] it is 7.52 to 8.52; for `Cc1ccc(C2=CCCc3ccc(C(=O)N=C(N)N)cc32)c(C#N)c1` [Example 2-79] it is 7.52 to 8.52.

Consider `N#Cc1ccccc1-c1csc2ccc(C(=O)N=C(N)N)cc12` [Example 3-38], for which the pKi is 7.52 to 8.52. The figure for `N#Cc1ccc(C2=CCCCc3ccc(C(=O)N=C(N)N)cc32)cc1` [Example 3-04] is 6.52 to 7.52; for `NC(N)=NC(=O)c1ccc2c(c1)C(c1ccc(F)nc1)=CCC2` [Example 2-53] it is 7.52 to 8.52. The figure for `NC(N)=NC(=O)c1ccc2c(c1)C(c1ccccc1)=CCCC2` [Example 3-03] is 6.52 to 7.52; for `Cc1ccc(C2=CCCc3ccc(C(=O)N=C(N)N)cc32)c(Cl)c1` [Example 2-134] it is 8.52 to 9.52; for `Cc1cc(Cl)ccc1C1=CCOc2ccc(C(=O)N=C(N)N)cc21` [Example 1-92] it is 8.52 to 9.52. As for `COc1cc(C#N)ccc1C1=C(F)CCc2ccc(C(=O)N=C(N)N)cc21` [Example 2-166], the negative-log Ki (pKi) was 8.52 to 9.52. The figure for `NC(N)=NC(=O)c1ccc2scc(-c3ccccc3F)c2c1` [Example 3-26] is 8.52 to 9.52; for `CSc1ccccc1C1=CCCc2ccc(C(=O)N=C(N)N)cc21` [Example 2-82] it is 7.52 to 8.52; for `CC1=C(c2ccc(Cl)cc2Cl)c2cc(C(=O)N=C(N)N)ccc2CC1` [Example 2-144] it is 8.52 to 9.52. The figure for `NC(N)=NC(=O)c1ccc2c(c1)C(c1ccc(F)cc1F)=C(F)CC2` [Example 2-90] is 7.52 to 8.52; for `NC(N)=NC(=O)c1ccc2c(c1)C(c1ccccc1O)=CCO2` [Example 1-22] it is 8.52 to 9.52. To `NC(N)=NC(=O)c1ccc2c(c1)C(c1ccc(Cl)cc1Cl)=CCO2` [Example 1-51] belongs 8.52 to 9.52; to `CC1=C(c2ccccc2)c2cc(C(=O)N=C(N)N)ccc2CC1` [Example 2-56], 8.64; to `CC1=C(c2ccc(C)cc2C)c2cc(C(=O)N=C(N)N)ccc2CC1` [Example 2-164], 8.52 to 9.52. Turning to `CC1=C(c2ccc(C#N)cc2)c2cc(C(=O)N=C(N)N)ccc2CC1` [Example 2-59], the pKi was 8.52 to 9.52.
